# Legend:
# CYP2A6 = biological target: T1, CYP2A6 (Homo sapiens, UniProt P11509); assay: recombinant CYP activity with fluorogenic substrate; format: biochemical
# T1 sequence (P11509 1-494): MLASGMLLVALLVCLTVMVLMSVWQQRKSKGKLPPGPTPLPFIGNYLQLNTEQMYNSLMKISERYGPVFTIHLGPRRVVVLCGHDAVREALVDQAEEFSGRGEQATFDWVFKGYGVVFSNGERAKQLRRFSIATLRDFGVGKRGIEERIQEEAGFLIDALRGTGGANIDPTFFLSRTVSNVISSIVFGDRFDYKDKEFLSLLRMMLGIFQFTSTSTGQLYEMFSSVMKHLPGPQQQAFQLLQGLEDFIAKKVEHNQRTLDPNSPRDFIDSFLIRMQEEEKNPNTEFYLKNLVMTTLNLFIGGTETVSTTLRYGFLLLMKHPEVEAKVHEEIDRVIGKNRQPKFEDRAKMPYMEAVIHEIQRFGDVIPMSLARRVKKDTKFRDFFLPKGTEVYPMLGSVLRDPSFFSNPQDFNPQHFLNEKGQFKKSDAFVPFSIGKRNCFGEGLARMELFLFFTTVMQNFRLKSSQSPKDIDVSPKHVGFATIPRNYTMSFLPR
# CYP2B6 = biological target: T2, CYP2B6 (Homo sapiens, UniProt P20813); assay: as above; format: biochemical
# T2 sequence (P20813 1-491): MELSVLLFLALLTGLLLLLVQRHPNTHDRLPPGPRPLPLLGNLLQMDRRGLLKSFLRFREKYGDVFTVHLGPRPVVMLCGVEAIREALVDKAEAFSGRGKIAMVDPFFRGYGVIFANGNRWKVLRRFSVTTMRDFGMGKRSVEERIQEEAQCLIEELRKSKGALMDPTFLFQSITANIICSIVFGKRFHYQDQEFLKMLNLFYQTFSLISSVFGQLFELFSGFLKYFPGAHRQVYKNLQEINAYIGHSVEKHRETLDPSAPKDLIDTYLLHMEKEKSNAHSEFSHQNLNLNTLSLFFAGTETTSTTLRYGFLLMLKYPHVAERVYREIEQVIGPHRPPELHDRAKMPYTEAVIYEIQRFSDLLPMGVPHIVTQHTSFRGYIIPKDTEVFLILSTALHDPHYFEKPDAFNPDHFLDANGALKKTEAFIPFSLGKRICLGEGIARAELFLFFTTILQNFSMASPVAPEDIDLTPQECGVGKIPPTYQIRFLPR
# CYP2C8 = biological target: T3, CYP2C8 (Homo sapiens, UniProt P10632); assay: as above; format: biochemical
# T3 sequence (P10632 1-490): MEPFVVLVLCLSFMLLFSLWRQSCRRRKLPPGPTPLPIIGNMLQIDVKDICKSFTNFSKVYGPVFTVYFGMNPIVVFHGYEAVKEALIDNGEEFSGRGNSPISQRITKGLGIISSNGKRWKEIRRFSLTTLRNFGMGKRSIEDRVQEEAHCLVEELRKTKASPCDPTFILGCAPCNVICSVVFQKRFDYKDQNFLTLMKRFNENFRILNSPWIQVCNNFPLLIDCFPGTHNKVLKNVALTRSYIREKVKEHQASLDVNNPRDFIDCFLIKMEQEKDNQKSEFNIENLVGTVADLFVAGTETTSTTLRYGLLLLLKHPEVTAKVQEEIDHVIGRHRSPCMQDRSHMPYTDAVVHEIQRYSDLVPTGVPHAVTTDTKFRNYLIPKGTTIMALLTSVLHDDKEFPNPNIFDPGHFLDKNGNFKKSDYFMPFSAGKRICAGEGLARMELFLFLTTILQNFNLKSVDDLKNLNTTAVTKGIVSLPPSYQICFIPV
# CYP2C19 = CYP2C19 (Homo sapiens, UniProt P33261); assay: as above; format: biochemical
# Chain of CYP2C19 (P33261 whole entry): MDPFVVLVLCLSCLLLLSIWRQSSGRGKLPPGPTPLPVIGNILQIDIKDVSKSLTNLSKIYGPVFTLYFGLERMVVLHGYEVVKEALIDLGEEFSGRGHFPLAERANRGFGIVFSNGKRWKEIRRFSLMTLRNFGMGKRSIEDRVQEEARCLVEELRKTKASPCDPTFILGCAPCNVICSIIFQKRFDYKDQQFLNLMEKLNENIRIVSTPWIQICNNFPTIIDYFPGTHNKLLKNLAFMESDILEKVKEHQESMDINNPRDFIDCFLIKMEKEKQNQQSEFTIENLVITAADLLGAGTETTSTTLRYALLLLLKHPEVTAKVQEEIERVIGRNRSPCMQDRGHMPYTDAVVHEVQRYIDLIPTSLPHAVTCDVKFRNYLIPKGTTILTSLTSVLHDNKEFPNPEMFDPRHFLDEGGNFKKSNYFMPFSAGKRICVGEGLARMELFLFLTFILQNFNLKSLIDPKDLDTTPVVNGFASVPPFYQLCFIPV
# Chain of CYP2C19 (P16435 2-677 partner): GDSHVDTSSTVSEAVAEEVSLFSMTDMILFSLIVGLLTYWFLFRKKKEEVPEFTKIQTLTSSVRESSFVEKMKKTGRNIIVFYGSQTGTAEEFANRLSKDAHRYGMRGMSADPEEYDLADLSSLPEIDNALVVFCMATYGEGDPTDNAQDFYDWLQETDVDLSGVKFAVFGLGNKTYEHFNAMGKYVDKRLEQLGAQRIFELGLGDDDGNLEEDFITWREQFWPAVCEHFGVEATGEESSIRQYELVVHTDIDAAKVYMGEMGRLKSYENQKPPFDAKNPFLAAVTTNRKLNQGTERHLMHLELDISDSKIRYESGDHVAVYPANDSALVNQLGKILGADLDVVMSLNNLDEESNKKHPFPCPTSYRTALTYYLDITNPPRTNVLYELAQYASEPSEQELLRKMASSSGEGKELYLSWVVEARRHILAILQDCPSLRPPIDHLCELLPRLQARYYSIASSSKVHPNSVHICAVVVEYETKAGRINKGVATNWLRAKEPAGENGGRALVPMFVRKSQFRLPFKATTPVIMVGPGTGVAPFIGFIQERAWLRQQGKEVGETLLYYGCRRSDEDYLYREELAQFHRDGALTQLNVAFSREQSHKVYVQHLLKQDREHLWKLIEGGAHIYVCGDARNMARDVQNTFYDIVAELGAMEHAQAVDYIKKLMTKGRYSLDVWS
# liver Ces = assay: liver carboxylesterase; format: in vivo, rat; settings: menadione 20 min after parathion
compound,measurement,setting,value
"CC1=CC(=O)c2ccccc2C1=O [menadione, 2-methylnaphthalene-1,4-dione]",IC50,CYP2A6,8.01 ± 0.62 µM
same,IC50,CYP2B6,5.76 ± 0.78 µM
same,IC50,CYP2C8,2.36 ± 0.11 µM
same,IC50,CYP2C19,8.51 ± 0.38 µM
same,inhibition of liver Ces by parathion,liver Ces,reduced the inhibition
